One test deals with MDA-MB-231 cells. As to the kind of experiment: Western blotting (AMPK, EMT proteins). Type of test: cell-based, human. To be noted: 48 h. On the procedure:
(§1) For western blotting (WB), whole-protein extracts from MDA-MB-231, SkBr3 and MDA-MB-436 cells were prepared using RIPA buffer (50 mM Tris pH 7.4, 150 mM NaCl, 1% Triton-X-100, 0.05% sodium deoxycholate, 1 mM EDTA, 0.1% SDS, protease inhibitor cocktail and PhosSTOP Phosphatase Inhibitor Cocktail (Roche®)), centrifuged at 10,000×g for 10 min, and quantified using the Bio-Rad® Protein Assay. Proteins (50 μg for MDA-MB-231 and 100 μg for SkBr3 and MDA-MB-436 cells) were loaded into each lane of a 10-12% polyacrylamide gel in the presence of SDS, and were allowed to separate at 120 V for 90 min. The transfer of proteins onto nitrocellulose membranes was performed using an iBlot 2 Dry Blotting System (Thermo Fisher Scientific®) with the 7 min P0 program. Membranes were then blocked using 5% (w/v) powdered milk for 1 h, and incubated overnight at 4° C. with a primary antibody (Table 4).
(§2) β-actin served as a loading control. Immunodetection was performed at room temperature for 1 h using as secondary antibodies a horseradish peroxidase-conjugated goat anti-rabbit (Jackson®, Cat #111-035-003) and goat anti-mouse (Jackson®, Cat #115-035-003) in PBS-Tween containing 5% (w/v) milk or BSA. Detection was performed with ECL reagent (Amersham®, Cat #RPN2209), and protein bands were visualized and captured using ECL imager 600 (Amersham®). They were analyzed using the Image J software (Java).
On the technique in general: In western blotting, separated proteins are transferred to a membrane and probed.

In a further test the test system is SkBr3 cells. The test is described as follows: Western blotting (AMPK, EMT proteins). Format: cell-based, human. To be noted: 48 h. As to the method: as §1, §2
The test system of test [1] is murine 4T1 breast cancer cells. The test is described as follows: Cell viability, CellTiter-Glo. Type of test: cell-based, mouse. To be noted: increasing doses of DXR ±100 nM MitoQ, 48 h. On the procedure:
Cells were plated in 96-well plates and left to adhere for 16 hours. In order to avoid reaching full confluence at the endpoint, starting cell count was defined according to doubling time and the duration of the experiment. Following adhesion, cells were treated with the indicated compounds for 48 h, after which staining was done with a CellTiter-Glo Luminescent Cell Viability assay (Promega®, catalogue #G7570), according to supplier's instructions. This method is based on the quantification of intracellular ATP levels.
(In general: In ATP-based viability assays light output follows the ATP content of the culture.)

For the compound `COC1=C(OC)C(=O)C(CCCCCCCCCC[P+](c2ccccc2)(c2ccccc2)c2ccccc2)=C(C)C1=O` [MitoQ], the “5′ AMP-activated protein kinase (AMPK), P-T172-AMPK/total AMPK” value in the test with MDA-MB-231 cells (MitoQ 100 nM) is recorded as “activation”. For the same compound, in the test with MDA-MB-231 cells (MitoQ 500 nM), the “SNAIL, ZEB1, Twist1 and E-cadherin protein expression” value is reported as “decreased”. Besides, the AMPK activation entry with SkBr3 cells (MitoQ 100 nM) is on record as “did not significantly activate”. In addition, the SNAIL protein expression entry with SkBr3 cells (MitoQ 500 nM) is “decreased”. The DXR-induced cell killing result in test [1] is listed as “did not interfere”.
